Experiment [1] deals with mouse GPR17 (mGPR17) (Mus musculus, UniProt Q6NS65). Put plainly: label-free DMR and second messenger assays, HEK293 cells. The note with it: agonist. It counts as cell-based.
In experiment [2] the target is rat GPR17 (rGPR17) (Rattus norvegicus, UniProt Q09QM4). The description is as above. It counts as cell-based. The note with it: agonist.
Chain of rat GPR17 (rGPR17) (Q09QM4 whole entry): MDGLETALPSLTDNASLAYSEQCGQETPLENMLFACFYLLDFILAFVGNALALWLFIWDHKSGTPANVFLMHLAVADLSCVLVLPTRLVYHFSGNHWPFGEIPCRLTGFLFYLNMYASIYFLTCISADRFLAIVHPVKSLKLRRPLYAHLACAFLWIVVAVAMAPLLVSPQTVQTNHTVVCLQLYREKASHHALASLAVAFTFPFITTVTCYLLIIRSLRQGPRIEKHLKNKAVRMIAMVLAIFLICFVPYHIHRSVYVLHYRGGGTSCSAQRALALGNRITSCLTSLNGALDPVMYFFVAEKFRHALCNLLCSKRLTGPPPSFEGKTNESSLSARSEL

Chain of mouse GPR17 (mGPR17) (Q6NS65 whole entry): as the sequence (Q09QM4 whole entry) above, with D2N, T6A, A15S, S270A counted along it

Take `O=C(O)CCc1c(C(=O)O)[nH]c2cc(Cl)cc(Cl)c12` [compound 2, 2-carboxy-4,6-dichloro-1H-indole-3-propionic acid]: the EC50 result in experiment [1] was “concentration-dependent activation of rGPR17 and mGPR17 was observed”; in experiment [2], “concentration-dependent activation of rGPR17 and mGPR17 was observed”.

Source of the values: publication PMC4114018 (Science signaling, 2013).
